Marks after values point to notes of the source that are not given here.
Key:
[1] = molecular target: casein kinase 1δ (Homo sapiens (Human), UniProt P48730); experiment: Kinase inhibition assay (HotSpot assay, Reaction Biology Corp); type: biochemical; conditions: 10 μM ATP, 10-dose IC50 mode, 3-fold serial dilution starting at 10 μM; for IC50: read-out: CK1δ IC50; for pIC50: casein kinase 1δ
[2] = system: TGF-β-induced IL-11; experiment: Human parenchymal fibroblast cell assay: inhibition of TGF-β-induced IL-11 (ELISA); type: cell-based; conditions: primary human parenchymal fibroblasts, 100 pM TGF-β1, 16-24 hours, 4.00 is assigned to compounds that failed to cause 50% or more inhibition at 100 µM; for IC50: Fibroblast, read-out: pIC50 IL-11 suppression (converted)
Description: Primary human parenchymal fibroblast cells (pFbs) were cultured from parenchyma of lung resection specimens and from non-transplanted lungs of donors without chronic respiratory disease. pFbs were passaged in Dulbecco's Modified Eagle's Media (DMEM) containing 10% (v/v) heat-inactivated fetal calf serum (FCS), 15 mM HEPES, 0.2% (v/v) sodium bicarbonate, 2 mM L-glutamine, 1% (v/v) non-essential amino acids, 1% (v/v) sodium pyruvate, 2.5 μg/mL amphotericin, 5 IU/mL penicillin and 50 μg/mL streptomycin.
Prior to experimentation, pFb were incubated in serum-free DMEM containing 0.25% bovine serum albumin (BSA) and insulin-transferrin-selenium-containing supplement (Monomed A; CSL, Parkville, Melbourne, Australia). The cells were incubated with small molecular CK1δelta inhibitors (0.1-10 μM) for 30 min prior to 100 pM TGF-β1 (R&D Systems, Minneapolis, MN) and the incubation continued for 16-24 hours prior to harvest of supernatant for detection of immunoreactive IL-11. Stock solutions were made as 10 mM in 100% DMSO and diluted to the required concentration in medium containing 0.1% DMSO (final concentration).
Supernatants were collected for measurement of IL-11 (R&D DuoSet, DY218) by ELISA following the manufacturers' instructions. Generally, capture antibodies were initially diluted to the recommended concentrations using PBS buffer, and then used to coat the wells of 96-well microplates (Greiner, #655061) by adding 50 μL/well and incubated overnight at room temperature. Next day, solutions were discarded and wells were washed 3 times with wash buffer (PBS containing 0.1% (v/v) Tween-20) prior to the addition of 200 μL of blocking solution (PBS containing 1% (v/v) BSA) for 1 hour to block non-specific sites. Plates were then washed 3 times with wash buffer and 50 μL of samples or standards were then added to wells and incubated for 2 hours at room temperature. After the incubation, plates were washed 3 times with wash buffer and 50 μL of detection antibodies were added to wells and incubated for 2 hours at room temperature. Plates were then washed 3 times before adding streptavidin-conjugated horseradish peroxidase (at the recommended concentrations) for 45 min. Plates were then washed 5 times with wash buffer and 100 μL TMB substrate solution (equal parts A and B, BD Biosciences) was added to each well until sufficient signals emerged. The reactions were inactivated by adding 100 μL sulphuric acid (2M H2SO4). The absorbance was measured at 450 nm using the Multiskan Ascent® plate reader. The absorbance of the cytokine standards was fitted to a logistic equation, allowing the concentrations of cytokine in samples to be determined.
pIC50 values (the negative log of the concentration suppressing IL-11 level by 50%) for inhibition of TGF-β-induced IL-11 were interpolated from the linear regression of log concentration small molecule versus IL-11 level (Table 4 and FIG. 2).

Chain of casein kinase 1δ (P48730 whole entry): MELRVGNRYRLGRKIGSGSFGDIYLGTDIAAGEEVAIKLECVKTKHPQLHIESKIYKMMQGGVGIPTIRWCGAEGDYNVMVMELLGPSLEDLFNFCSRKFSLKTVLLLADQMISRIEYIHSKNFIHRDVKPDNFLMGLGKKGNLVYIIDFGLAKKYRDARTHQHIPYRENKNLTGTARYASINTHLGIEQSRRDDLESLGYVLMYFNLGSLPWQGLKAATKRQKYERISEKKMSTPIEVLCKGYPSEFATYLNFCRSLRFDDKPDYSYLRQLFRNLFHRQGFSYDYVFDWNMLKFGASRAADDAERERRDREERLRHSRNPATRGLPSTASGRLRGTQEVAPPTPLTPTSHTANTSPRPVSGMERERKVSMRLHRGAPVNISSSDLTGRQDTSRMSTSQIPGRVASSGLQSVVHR

Row | Compound | IC50 [1] | pIC50 [1] | IC50 [2] | pIC50 IL-11 suppression [2]
1 | Fc1ccc(-c2ncn(C3CCCCC3)c2-c2ccnc(NCC3CCC(F)(F)CC3)n2)cc1 [ZH3-74, 4-(1-Cyclohexyl-4-(4-fluorophenyl)-1H-imidazol-5-yl)-N-((4,4-difluorocyclohexyl)methyl)pyrimidin-2-amine] | 2.97 nM | 8.53 | 6760 nM | –
2 | C[C@@H](Nc1nccc(-c2c(-c3ccc(F)cc3)ncn2C2CCCCC2)n1)C1CCCCC1 [ZH3-94, (R)-4-(1-Cyclohexyl-4-(4-fluorophenyl)-1H-imidazol-5-yl)-N-(1-cyclohexylethyl)pyrimidin-2-amine] | 34.4 nM | 7.46 | 912 nM | –
3 | C[C@H](Nc1nccc(-c2c(-c3ccc(F)cc3)ncn2C2CCCCC2)n1)C1CCCCC1 [ZH3-90, (S)-4-(1-Cyclohexyl-4-(4-fluorophenyl)-1H-imidazol-5-yl)-N-(1-cyclohexylethyl)pyrimidin-2-amine] | – | 6.57 | > 100000 nM | –
4 | Fc1ccc(-c2ncn(C3CCCCC3)c2-c2ccnc(NCC3CCOCC3)n2)cc1 [ZH2-102, 4-(1-Cyclohexyl-4-(4-fluorophenyl)-1H-imidazol-5-yl)-N-((tetrahydro-2H-pyran-4-yl)methyl)pyrimidin-2-amine] | 1.7 nM | 8.77 | 407 nM | –
5 | Fc1ccc(-c2ncn(C3CCCCC3)c2-c2ccnc(NCC3CCCCC3)n2)cc1 [ZH2-98, 4-(1-Cyclohexyl-4-(4-fluorophenyl)-1H-imidazol-5-yl)-N-(cyclohexylmethyl)pyrimidin-2-amine] | 12.6 nM | 7.91 | 1780 nM | –

Continued, in another order:

Row | IC50 [1] | pIC50 [1] | Compound | IC50 [2] | pIC50 IL-11 suppression [2]
6 | 1.93 nM | 8.71 | Fc1ccc(-c2ncn(C3CCCCC3)c2-c2ccnc(NCc3ccccn3)n2)cc1 [ZH2-130, 4-(1-Cyclohexyl-4-(4-fluorophenyl)-1H-imidazol-5-yl)-N-(pyridin-2-ylmethyl)pyrimidin-2-amine(2-picolyl)] | 724 nM | –
7 | 2.54 nM | 8.59 | Fc1ccc(-c2ncn(C3CCCCC3)c2-c2ccnc(NCCCc3ccccc3)n2)cc1 [ZH3-98, 4-(1-Cyclohexyl-4-(4-fluorophenyl)-1H-imidazol-5-yl)-N-(3-phenylpropyl)pyrimidin-2-amine] | 2000 nM | –
8 | – | 7.42 | CC(C)(F)n1cnc(-c2ccc(F)cc2)c1-c1ccnc(NCC2CCC(F)(F)CC2)n1 [ZH2-62] | – | < 4.00*
9 | 5.07 nM | – | FCn1cnc(-c2ccc(F)cc2)c1-c1ccnc(NCCCc2ccccc2)n1 [ZH2-122] | – | –
10 | – | 5.86 | Fc1ccc(-c2ncn(C3CCCCC3)c2-c2ccnc(NCc3ccc(-c4ccccc4)cc3)n2)cc1 [ZH2-66, N-([1,1′-Biphenyl]-4-ylmethyl)-4-(1-cyclohexyl-4-(4-fluorophenyl)-1H-imidazol-5-yl)pyrimidin-2-amine] | > 100000 nM | –
11 | 7.16 nM | 8.15 | Fc1ccc(-c2ncn(C3CCCCC3)c2-c2ccnc(NCC3CCCC3)n2)cc1 [ZH2-86, 4-(1-Cyclohexyl-4-(4-fluorophenyl)-1H-imidazol-5-yl)-N-(cyclopentylmethyl)pyrimidin-2-amine] | 1910 nM | –

From patent US12215095B2, “Compounds for the treatment of respiratory diseases” (Tianli Biotech Pty Ltd, priority 2018, dated 2025)
